Assay results as given in US20250171486A1, “N4-ISOBUTYRYLOXYCYTIDINE ANALOG SYNTHESIS AND COMPOSITION FOR TREATING VIRAL INFECTION COMPRISING ANTI-VIRAL USE THEREOF” (Dong-A University Research Foundation for Industry-Academy …, priority 2022, published 2025).
Read-outs that look alike come from different tables or passages of the source.

How the values were obtained:
[1] = system: Influenza virus A/Hong Kong/8/68 (HK: H3N2); experiment: organism not typed; type: cell-based; settings: for Selectivity index Flu A H3H2 Hong Kong: MDCK cells; for EC50: read-out: Antiviral activity (EC50) Flu A H3N2 Hong Kong
in vitro [2] = settings: dog
[3] = system: Influenza virus A/Puerto Rico/8/34 (PR8; H1N1); experiment: organism not typed; type: cell-based; settings: for EC50: read-out: Antiviral activity (EC50) Flu A H1N1 PR8; for Selectivity index Flu A H1N1 PR8: MDCK cells
[4] = system: Influenza virus B/Lee/40 (Lee); experiment: microbe, parasite or virus in culture; type: cell-based; settings: for EC50: read-out: Antiviral activity (EC50) Flu B Lee; for Selectivity index Flu B Lee: MDCK cells
in vitro [5] = settings: for CC50: African green monkey
[6] = system: SARS-COV-2 (BetaCoV/Korea/KCDC03/2020); experiment: Image-based anti-SARS-COV-2 assay in Vero cells (anti-spike antibody); type: cell-based
[7] = system: DENV-2 replicon BHK-21 (DENV2-BHK) cells; experiment: MTT cytotoxicity assay in DENV-2 replicon BHK-21 cells; settings: for CC50: read-out: CC50, 50% cytotoxic concentration, BHK-21 cells, MTT
[8] = Cytotoxicity in mock-infected MDCK cells (MTT); settings: dog, mock-infected MDCK cells
Vero cells = settings: for CC50: read-out: CC50, cytotoxicity, 2 days
DENV-2 replicon = experiment: microbe, parasite or virus in culture; type: cell-based; settings: for S.I., Selectivity index = CC50/EC50: DENV-2, BHK-21 cells
[9] = MTT cytotoxicity assay in DENV-2 replicon BHK-21 cells; settings: hamster
MDCK cells = experiment: Cytotoxicity in mock-infected MDCK cells (MTT); settings: read-out: Toxicity (CC50); MDCK cells, 3 days
[10] = unidentified influenza virus, MDCK, 72 h
[11] = Severe acute respiratory syndrome coronavirus 2, Vero, 48 h
[12] = Dengue virus, DENV2, BHK-21, read-out: EC50, 50% effective concentration, anti-DENV-2 activity
[13] = read-out: EC50, 50% effective concentration, anti-DENV-2 activity, DENV-2 replicon BHK-21 cells, luciferase

| Compound | Selectivity index Flu A H3H2 Hong Kong [1] | EC50 ([1]; MDCK, 72 h) [µM] | EC50 ([3]; MDCK, 72 h) [µM] | EC50 [4, 10] [µM] | CC50 (in vitro [5]) [µM] | EC50 [6, 11] [µM] | CC50 [7] [µM] | EC50 (DENV-2 replicon; [12]) [µM] | EC50 [1] [µM] | EC50 [6] [µM] | EC50 [3] [µM] | CC50 (MDCK cells) [µM] | CC50 (Vero cells) [µM] | EC50 [4] [µM] | EC50 (DENV-2 replicon; [13]) [µM] | further results |
| --- | --- | --- | --- | --- | --- | --- | --- | --- | --- | --- | --- | --- | --- | --- | --- | --- |
| NC12CC3CC(CC(C3)C1)C2 [AMT, Amantadine] | >15.6 | 6.4 | > 100 | > 100 | – | – | – | – | – | – | – | – | – | – | – | CC50 (in vitro [2]): > 100 µM |
| CC(C)C(=O)ONc1ccn([C@@H]2O[C@H](CO)[C@@H](O)[C@H]2O)c(=O)n1 [Compound 5a, 1-((2R,3R,4S,5R)-3,4-Dihydroxy-5-(hydroxymethyl)tetrahydrofuran-2-yl)-4-((isobutyryloxy)amino)pyrimidin-2 (1H)-one] | >13.7 | 7.3 | 5.8 | 3.4 | > 100 | 3.5 | 10.8 | 3.95 | – | – | – | – | – | – | – | CC50 at 2 days (in vitro [5]; chlorocebus sabaeus): > 100 µM; Antiviral activity improved compared to the parent Compound 6 ([6]; SARS-COV-2): about 5 times; Antiviral activity improved over the other ester precursor 7 ([6]; SARS-COV-2): 3.5 fold; Cytotoxicity reduced compared to the parent Compound 6 ([7]; DENV-2 replicon cells): 2 fold; Selectivity index Flu A H1N1 PR8 [3]: >17.2; CC50 at 3 days [8]: > 100 µM; Cytotoxicity improved compared to the parent Compound 6 (Vero cells; SARS-COV-2 test): ≥ 6 times; Selectivity index Flu B Lee [4]: >29.4; S.I., Selectivity index = CC50/EC50 (DENV-2 replicon): 2.74; EC50 value improved over the ester precursor 7 (DENV-2 replicon; DENV-2 replicon): about 6 fold; EC50 value increased compared to the parent Compound 6 (DENV-2 replicon; DENV-2 replicon): about 2 fold |
| O=c1nc(NCCO)ccn1[C@@H]1O[C@H](CO)[C@@H](O)[C@H]1O [Compound 5b, 1-((2R,3R,4S,5R)-3,4-Dihydroxy-5-(hydroxymethyl)tetrahydrofuran-2-yl)-4-((2-hydroxyethyl)amino)pyrimidin-2 (1H)-one] | – | > 100 | > 100 | > 100 | > 100 | > 100 | – | > 100 | – | – | – | – | – | – | – | Biological SARS-COV-2 activity (in words) ([6]; Vero cells): did not show significant biological SARS-COV-2 activity; CC50 [9]: > 100 µM; CC50 at 3 days (in vitro [2]): > 100 µM; Anti-Flu A/B activity (in words) ([3]; Flu A (H1N1, H3N2) and Flu B together): did not exhibit significant anti-Flu A/B activity; Anti-DENV activity in replication assays (in words) (DENV-2 replicon; DENV-2 replicon): did not exhibit significant anti-DENV activity |
| CCOC(=O)CNc1ccn([C@@H]2O[C@H](CO)[C@@H](O)[C@H]2O)c(=O)n1 [Compound 5c, Ethyl(1-((2R,3R,4S,5R)-3,4-dihydroxy-5-(hydroxymethyl)tetrahydrofuran-2-yl)-2-oxo-1,2-dihydropyrimidin-4-yl)glycinate] | – | – | – | – | – | – | > 100 | – | > 100 | > 100 | > 100 | > 100 | > 100 | > 100 | > 100 | – |
| CCOC(=O)[C@H](C)Nc1ccn([C@@H]2O[C@H](CO)[C@@H](O)[C@H]2O)c(=O)n1 [Compound 5d, Ethyl(1-((2R,3R,4S,5R)-3,4-dihydroxy-5-(hydroxymethyl)tetrahydrofuran-2-yl)-2-oxo-1,2-dihydropyrimidin-4-yl)-L-alaninate] | – | – | – | – | – | – | > 100 | – | > 100 | > 100 | > 100 | > 100 | > 100 | > 100 | > 100 | – |
| CCOC(=O)[C@H](CC(C)C)Nc1ccn([C@@H]2O[C@H](CO)[C@@H](O)[C@H]2O)c(=O)n1 [Compound 5e, Ethyl(1-((2R,3R,4S,5R)-3,4-dihydroxy-5-(hydroxymethyl)tetrahydrofuran-2-yl)-2-oxo-1,2-dihydropyrimidin-4-yl)-L-leucinate] | – | – | – | – | – | – | > 100 | – | > 100 | > 100 | > 100 | > 100 | > 100 | > 100 | > 100 | – |
| CCOC(=O)[C@H](Cc1ccccc1)Nc1ccn([C@@H]2O[C@H](CO)[C@@H](O)[C@H]2O)c(=O)n1 [Compound 5f, Ethyl(1-((2R,3R,4S,5R)-3,4-dihydroxy-5-(hydroxymethyl)tetrahydrofuran-2-yl)-2-oxo-1,2-dihydropyrimidin-4-yl)-L-phenylalaninate] | – | – | – | – | – | – | > 100 | – | > 100 | > 100 | > 100 | > 100 | > 100 | > 100 | > 100 | – |
| O=c1nc(NO)ccn1[C@@H]1O[C@H](CO)C(O)[C@@H]1O (stereo partly drawn) [Compound 6, β-D-N^4-hydroxycytidine, reference compound] | >43.5 | 2.3 | 1.7 | < 1.2 | 16.5 | > 16.5 | – | 2.84 | – | – | – | – | – | – | – | CC50 [9]: 5.75 µM; CC50 at 3 days (in vitro [2]): > 100 µM; Selectivity index Flu A H1N1 PR8 [3]: >58.8; S.I., Selectivity index = CC50/EC50 (DENV-2 replicon): 2.02 |
| CC(C)C(=O)OC[C@H]1O[C@@H](n2ccc(NO)nc2=O)[C@@H](O)C1O (stereo partly drawn) [Compound 7, reference compound] | >16.7 | 6 | 6.6 | 23.8 | > 100 | 11.8 | – | 23.4 | – | – | – | – | – | – | – | CC50 [9]: 42.2 µM; Selectivity index Flu A H1N1 PR8 [3]: >15.2; CC50 at 3 days [8]: > 100 µM; Selectivity index Flu B Lee [4]: >4.2; S.I., Selectivity index = CC50/EC50 (DENV-2 replicon): 1.81 |
| NC(=O)c1nc(F)cnc1O [Compound T-705, 6-fluoro-3-hydroxy-2-pyrazinecarboxamide, reference compound] | – | 8.5 | 3.2 | 7.6 | – | – | – | – | – | – | – | – | – | – | – | CC50 at 3 days [8]: > 100 µM; Selectivity index Flu B Lee [4]: >13.2 |
| NC(=O)c1ncn([C@@H]2O[C@H](CO)[C@@H](O)[C@H]2O)n1 [RBV, Ribavirin, reference compound] | – | – | – | 33.3 | – | – | 5.46 | 1.16 | – | – | – | – | – | – | – | – |
| CCC(CC)COC(=O)[C@H](C)N[P@](=O)(OC[C@H]1O[C@@](C#N)(c2ccc3c(N)ncnn23)[C@H](O)[C@@H]1O)Oc1ccccc1 [Remdesivir, reference compound] | – | – | – | – | > 100 | – | – | – | – | – | – | – | – | – | – | – |
